In the NIST ThermoML archive (doi:10.1016/j.fluid.2004.12.007):
Numbers after ± are expanded uncertainties.

Settings: Liquid; for mass density: 298.15 K, 101.33 kPa

Structure (SMILES): CC(C)CC(C)(C)C [2,2,4-trimethylpentane]
- mass density: 687.72 ± 0.9 kg/m3
- vapor or sublimation pressure (370.45 K): 95.96 ± 0.59 kPa
- vapor or sublimation pressure (372.45 K): 101.3 ± 0.6 kPa

Structure (SMILES): COC(C)(C)C [2-methoxy-2-methylpropane]
- mass density: 735.4 ± 0.97 kg/m3
- vapor or sublimation pressure (326.55 K): 95.96 ± 0.64 kPa
- vapor or sublimation pressure (328.35 K): 101.3 ± 0.6 kPa

Structure (SMILES): CC(C)OC(C)C [diisopropyl ether]
- mass density: 718.14 ± 0.95 kg/m3
- vapor or sublimation pressure (339.95 K): 95.96 ± 0.8 kPa
- vapor or sublimation pressure (341.35 K): 101.3 ± 0.8 kPa

Structure (SMILES): COCOC [dimethoxymethane]
- mass density: 847.51 ± 1.1 kg/m3
- vapor or sublimation pressure (313.75 K): 95.96 ± 0.75 kPa
- vapor or sublimation pressure (315.25 K): 101.3 ± 0.8 kPa
